Measurements taken from the supplement of paper PMC10307832.

What was measured:
Test in all cases: relative viability (nuclei count vs DMSO), 5 days (fraction); higher = more cells survive
[1] = compound: C[C@@H](N)c1ccc(C(=O)Nc2ccnc3[nH]ccc23)cc1 + C[C@]1(O)C[C@@H](c2nc(-c3ccc4ccc(-c5ccccc5)nc4c3)c3c(N)nccn32)C1 [Linsitinib] (partner 1 µM)
Summary of the method: (§1)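 Five library-drug doses in √10 steps were combined with a fixed anchor-drug dose, or a single drug was given alone, by pin tool to lung cancer cell lines in 1536-well plates the day after seeding. Nuclei were stained and counted after 5 days. Relative viability is the nuclei count in treated wells over that in vehicle wells, taken as the median of duplicate plates.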

[2] = compound: O[C@H]1CC[C@H](Nc2ncc3nc(Nc4c(F)cc(F)cc4F)n([C@H]4CCOC4)c3n2)CC1 [Tanzisertib] + COc1cccc2cc(-c3nc([C@H]4CC[C@H](C(=O)O)CC4)n4ncnc(N)c34)[nH]c12 [OSI-027] (partner 0.5 µM)
Summary of the method: as §1

[3] = compound: O[C@H]1CC[C@H](Nc2ncc3nc(Nc4c(F)cc(F)cc4F)n([C@H]4CCOC4)c3n2)CC1 [Tanzisertib] + CCNC(=O)c1noc(-c2cc(C(C)C)c(O)cc2O)c1-c1ccc(CN2CCOCC2)cc1 [Luminespib] (partner 0.01 µM)
Summary of the method: as §1

[4] = compound: O[C@H]1CC[C@H](Nc2ncc3nc(Nc4c(F)cc(F)cc4F)n([C@H]4CCOC4)c3n2)CC1 [Tanzisertib] + Nc1nc2[nH]cc(CCc3ccc(C(=O)N[C@@H](CCC(=O)O)C(=O)O)cc3)c2c(=O)[nH]1 [Pemetrexed] (partner 0.2 µM)
Summary of the method: as §1

Row | Cell Line | relative viability ([1]; first compound 0.1265 µM) | relative viability ([1]; first compound 0.4 µM) | relative viability ([1]; first compound 1.265 µM) | relative viability ([1]; first compound 4 µM) | relative viability ([2]; first compound 0.08 µM) | relative viability ([2]; first compound 0.253 µM) | relative viability ([2]; first compound 0.8 µM) | relative viability ([2]; first compound 2.53 µM) | relative viability ([2]; first compound 8 µM) | relative viability ([3]; first compound 0.08 µM) | relative viability ([3]; first compound 0.253 µM) | relative viability ([3]; first compound 0.8 µM) | relative viability ([3]; first compound 2.53 µM) | relative viability ([3]; first compound 8 µM) | relative viability ([4]; first compound 0.08 µM) | relative viability ([4]; first compound 0.253 µM) | relative viability ([4]; first compound 0.8 µM) | relative viability ([4]; first compound 2.53 µM) | relative viability ([4]; first compound 8 µM) | relative viability ([1]; first compound 0.04 µM)
1 | NCI-H2405 | 1.07 | 0.744 | 0.599 | 0.45 | 0.7 | 0.596 | 0.682 | 0.703 | 0.532 | 0.716 | 0.713 | 0.577 | 0.676 | 0.609 | 1.1 | 1.1 | 1 | 1.24 | 0.955 | 
2 | NCI-H3122 | 0.985 | 0.964 | 1.02 | 1.03 | 1.26 | 0.869 | 0.939 | 0.955 | 0.946 | 0.134 | 0.0952 | 0.125 | 0.0854 | 0.103 | 0.2 | 0.192 | 0.193 | 0.19 | 0.188 | 1.03
3 | PC-3 [JPC-3] | 1.05 | 0.978 | 1 | 0.879 | 0.862 | 0.721 | 0.833 | 0.789 | 0.699 | 0.621 | 0.758 | 0.693 | 0.662 | 0.6 | 1.16 | 1.3 | 1.23 | 1.04 | 0.466 | 0.963
4 | PC-14 | 0.907 | 0.924 | 0.819 | 0.725 | 1.28 | 0.745 | 0.723 | 0.816 | 0.427 | 0.181 | 0.109 | 0.22 | 0.217 | 0.17 | 0.134 | 0.131 | 0.129 | 0.0897 | 0.104 | 0.927
5 | RERF-LC-KJ | 0.871 | 0.998 | 0.944 | 0.861 | 0.625 | 0.566 | 0.598 | 0.503 | 0.489 | 1.29 | 1.17 | 1.29 | 1.16 | 1.22 | 0.429 | 0.468 | 0.486 | 0.423 | 0.442 | 0.896
6 | SK-LU-1 | 1.1 | 1.19 | 0.956 | 0.637 | 0.392 | 0.324 | 0.319 | 0.354 | 0.365 | 0.229 | 0.231 | 0.189 | 0.181 | 0.18 | 1.07 | 0.949 | 1.02 | 0.969 | 0.979 | 1.09
7 | SK-MES-1 | 0.996 | 0.976 | 0.768 | 0.815 | 0.677 | 0.588 | 0.597 | 0.591 | 0.501 | 0.718 | 0.692 | 0.698 | 0.75 | 0.499 | 0.971 | 0.887 | 0.962 | 0.982 | 0.737 | 1.06
8 | SW 1573 | 0.873 | 0.82 | 0.861 | 0.622 | 0.829 | 0.594 | 0.558 | 0.592 | 0.484 | 0.294 | 0.24 | 0.18 | 0.187 | 0.339 | 0.809 | 0.84 | 0.805 | 0.839 | 0.683 | 0.763
